Here are results for one substance from patent US12605412B2, “Microbial compositions for improving the efficacy of anticancer treatments based on immune checkpoint inhibitors and/or tyrosine kinase inhibitors and markers of responsiveness to such treatments” (INSTITUT GUSTAVE ROUSSY, priority 2019, dated 2026).

This test deals with advanced renal cell carcinoma. The experiment in a line: Clinical outcome of nivolumab (anti-PD-1) in RCC patients of the NIVOREN trial, stratified by antibiotic use. The class given is in vivo, human. How it is done:
The patients were included from Gustave Roussy Cancer Campus, France. Inclusion criteria were patients with stage IV clear cell or non-clear cell RCC histology and disease progression during or after >1 prior anti-angiogenic therapy regimens who received nivolumab intravenously (i.v.) 3 mg/kg every 2 weeks until disease progression or intolerable toxicity in the NIVOREN GETUG-AFU 26 Phase II trial (EudraCT: 2015-004117-24) (Albiges et al., 2018). Computer tomography (CT) scans were performed at baseline and every 8 to 12 weeks for the first year and then every 12 to 15 weeks until disease progression. Tumor response was assessed using the Response Evaluation Criteria in Solid Tumors version 1.1 (RECIST v1.1) (Eisenhauer et al., 2009). […] We evaluated objective response rate defined as the number of patients with a complete response and a partial response. The best overall response was defined as the investigator-assessed best response (complete response, partial response, stable disease, or progressive disease) from the start date of nivolumab to objectively documented disease progression or subsequent therapy, whichever occurred first. […] Forty patients were analyzed in addition to 60 non-small cell lung cancer patients in the Science 2018 paper (Routy et al., 2018). […] For the first time, RCC were analyzed as a single and independent cohort in this paper. […]

In the case of nivolumab [ICB], where the note is “RCC patients on nivolumab, noATB subgroup, RECIST v1.1”, the “objective response rate (ORR)” value is 28%. Where the note is “no ATB subgroup during ICB therapy”, the primary resistance is on record as 33%.
